Calls of active or inactive are those of the source. The calls are words filed in the database; no cut-off is given here.
Experiments:
JIMT-1 [1] = assay: Effect on P38 expression in human JIMT- 1 cells at 20 uM measured for 48 hrs by immunoblot analysis; type: functional, cell-based
[2] = Selectivity index, ratio of IC50 for antiproliferative activity against human BT-474 cells assessed as inhibition of cell growth to IC50 for antiproliferative activity against human MDA-MB-468 cells assessed as inhibition of cell growth; type: functional
MCF7 [3] = assay: Effect on P38 expression in human MCF7 cells at 20 uM measured for 48 hrs by immunoblot analysis; type: functional, cell-based
MDA-MB-468 [4] = assay: Induction of cell cycle arrest in human MDA-MB-468 cells assessed as accumulation of cells at G1 phase at 20 uM measured for 48 hrs by PI staining based flow cytometry analysis (reference value: 80.8%); type: functional
JIMT-1 [5] = assay: Effect on P53 expression in human JIMT- 1 cells at 20 uM measured for 48 hrs by immunoblot analysis; type: functional, cell-based
MCF7 [6] = assay: Effect on gammaH2AX expression in human MCF7 cells at 20 uM measured for 48 hrs by immunoblot analysis; type: functional, cell-based
BT-474 [7] = assay: Antiproliferative activity against human BT-474 cells assessed as inhibition of cell growth; type: functional, cell-based
BT-474 [8] = assay: Effect on HSP70 expression in human BT-474 cells at 20 uM measured for 48 hrs by immunoblot analysis; type: functional, cell-based
MDA-MB-468 [9] = assay: Induction of cell cycle arrest in human MDA-MB-468 cells assessed as accumulation of cells at S phase at 10 uM measured for 48 hrs by PI staining based flow cytometry analysis (reference value: 4.39%); type: functional
SK-BR-3 [10] = assay: Effect on P38 expression in human SK-BR-3 cells at 20 uM measured for 48 hrs by immunoblot analysis; type: functional, cell-based
MCF-10A [11] = assay: Effect on P38 expression in human MCF-10A cells at 20 uM measured for 48 hrs by immunoblot analysis; type: functional, cell-based
BT-474 [12] = assay: Effect on P53 expression in human BT-474 cells at 20 uM measured for 48 hrs by immunoblot analysis; type: functional, cell-based
MCF7 [13] = assay: Antiproliferative activity against human MCF7 cells assessed as inhibition of cell growth; type: functional, cell-based
[14] = Antiproliferative activity against human MCF-10A cells assessed as inhibition of cell growth; type: toxicity, cell-based
SK-BR-3 [15] = assay: Effect on HSP70 expression in human SK-BR-3 cells at 20 uM measured for 48 hrs by immunoblot analysis; type: functional, cell-based
MDA-MB-468 [16] = assay: Antiproliferative activity against human MDA-MB-468 cells assessed as inhibition of cell growth; type: functional, cell-based
MDA-MB-468 [17] = assay: Induction of cell cycle arrest in human MDA-MB-468 cells assessed as accumulation of cells at S phase at 20 uM measured for 48 hrs by PI staining based flow cytometry analysis (reference value: 4.39%); type: functional
MDA-MB-468 [18] = assay: Potency index, ratio of cisplatin IC50 to test compound IC50 for antiproliferative activity against human MDA-MB-468 cells assessed as inhibition of cell growth; type: functional
SK-BR-3 [19] = assay: Effect on P53 expression in human SK-BR-3 cells at 20 uM measured for 48 hrs by immunoblot analysis; type: functional, cell-based
MDA-MB-468 [20] = assay: Induction of cell cycle arrest in human MDA-MB-468 cells assessed as accumulation of cells at G2 phase at 5 uM measured for 48 hrs by PI staining based flow cytometry analysis (reference value: 16.4%); type: functional
MDA-MB-468 [21] = assay: Downregulation of HSP70 expression in human MDA-MB-468 cells upto 20 uM; type: functional, cell-based
MDA-MB-468 [22] = assay: Effect on HSF-1 level in human MDA-MB-468 cells upto 20 uM; type: functional, cell-based
MCF-10A [23] = assay: Effect on HSP70 expression in human MCF-10A cells at 20 uM measured for 48 hrs by immunoblot analysis; type: functional, cell-based
MCF-10A [24] = assay: Effect on gammaH2AX expression in human MCF-10A cells at 20 uM measured for 48 hrs by immunoblot analysis; type: functional, cell-based
JIMT-1 [25] = assay: Effect on HSP70 expression in human JIMT- 1 cells at 20 uM measured for 48 hrs by immunoblot analysis; type: functional, cell-based
JIMT-1 [26] = assay: Effect on gammaH2AX expression in human JIMT- 1 cells at 20 uM measured for 48 hrs by immunoblot analysis; type: functional, cell-based
SK-BR-3 [27] = assay: Effect on gamma H2AX expression in human SK-BR-3 cells at 20 uM measured for 48 hrs by immunoblot analysis; type: functional, cell-based
MDA-MB-468 [28] = assay: Induction of DNA damage in human MDA-MB-468 cells assessed as increase in p53 expression; type: functional, cell-based; conditions: dose <= 20.0 µM
BT-474 [29] = assay: Effect on P38 expression in human BT-474 cells at 20 uM measured for 48 hrs by immunoblot analysis; type: functional, cell-based
MDA-MB-468 [30] = assay: Effect on HSP90 level in human MDA-MB-468 cells upto 20 uM; type: functional, cell-based
MDA-MB-468 [31] = assay: Induction of cell cycle arrest in human MDA-MB-468 cells assessed as accumulation of cells at G2 phase at 10 uM measured for 48 hrs by PI staining based flow cytometry analysis (reference value: 16.4%); type: functional
SK-BR-3 [32] = assay: Antiproliferative activity against human SK-BR-3 cells assessed as inhibition of cell growth; type: functional, cell-based
MDA-MB-468 [33] = assay: Antiproliferative activity against human MDA-MB-468 cells assessed as inhibition of cell growth at 10 uM incubated for 72 hrs; type: functional
MCF7 [34] = assay: Effect on P53 expression in human MCF7 cells at 20 uM measured for 48 hrs by immunoblot analysis; type: functional, cell-based
MCF-10A [35] = assay: Effect on P53 expression in human MCF-10A cells at 20 uM measured for 48 hrs by immunoblot analysis; type: functional, cell-based
MDA-MB-468 [36] = assay: Induction of DNA damage in human MDA-MB-468 cells assessed as increase in accumulation of gammaH2AX level; type: functional, cell-based; conditions: dose <= 20.0 µM
MDA-MB-468 [37] = assay: Induction of cell cycle arrest in human MDA-MB-468 cells assessed as accumulation of cells at G1 phase at 10 uM measured for 48 hrs by PI staining based flow cytometry analysis (reference value: 80.8%); type: functional
[38] = biological target: MAP kinase p38 (Homo sapiens) (UniProt O15264+Q15759+Q16539+P53778); assay: Inhibition of P38 phosphorylation in human MDA-MB-468 cells upto 20 uM; type: cell-based
MDA-MB-468 [39] = assay: Induction of cell cycle arrest in human MDA-MB-468 cells assessed as accumulation of cells at S phase at 5 uM measured for 48 hrs by PI staining based flow cytometry analysis (reference value: 4.39%); type: functional
BT-474 [40] = assay: Effect on gammaH2AX expression in human BT-474 cells at 20 uM measured for 48 hrs by immunoblot analysis; type: functional, cell-based
MCF7 [41] = assay: Effect on HSP70 expression in human MCF7 cells at 20 uM measured for 48 hrs by immunoblot analysis; type: functional, cell-based
MDA-MB-468 [42] = assay: Induction of cell cycle arrest in human MDA-MB-468 cells assessed as accumulation of cells at G1 phase at 5 uM measured for 48 hrs by PI staining based flow cytometry analysis (reference value: 80.8%); type: functional
MDA-MB-468 [43] = assay: Induction of cell cycle arrest in human MDA-MB-468 cells assessed as accumulation of cells at G2 phase at 20 uM measured for 48 hrs by PI staining based flow cytometry analysis (reference value: 16.4%); type: functional
JIMT-1 [44] = assay: Antiproliferative activity against human JIMT-1 cells assessed as inhibition of cell growth; type: functional, cell-based

## O=C1Nc2ccccc2N/C1=C\C(=O)c1cccc(OCc2ccccc2)c1
JIMT-1 [1]
  Activity: inactive
[2]
  Ratio IC50: 4.4
MCF7 [3]
  Activity: inactive
MDA-MB-468 [4]
  Activity: 58.7%
JIMT-1 [5]
  Activity: inactive
MCF7 [6]
  Activity: inactive
BT-474 [7]
  IC50: 28.7 µM
BT-474 [8]
  Activity: inactive
MDA-MB-468 [9]
  Activity: 13.3%
SK-BR-3 [10]
  Activity: inactive
MCF-10A [11]
  Activity: inactive
BT-474 [12]
  Activity: inactive
MCF7 [13]
  IC50: 41.6 µM
[14]
  IC50: 47.5 µM
SK-BR-3 [15]
  Activity: inactive
MDA-MB-468 [16]
  IC50: 6.5 µM
MDA-MB-468 [17]
  Activity: 20%
MDA-MB-468 [18]
  Ratio IC50: 2
SK-BR-3 [19]
  Activity: inactive
MDA-MB-468 [20]
  Activity: 17.4%
MDA-MB-468 [21]
  Activity: Active
MDA-MB-468 [22]
  Activity: inactive
MCF-10A [23]
  Activity: inactive
MCF-10A [24]
  Activity: inactive
JIMT-1 [25]
  Activity: inactive
JIMT-1 [26]
  Activity: inactive
SK-BR-3 [27]
  Activity: inactive
MDA-MB-468 [28]
  Activity: Dose-Dependent Effect
BT-474 [29]
  Activity: inactive
MDA-MB-468 [30]
  Activity: inactive
MDA-MB-468 [31]
  Activity: 19.1%
SK-BR-3 [32]
  IC50: > 60 µM
MDA-MB-468 [33]
  inhibition at 10 µM: 50%
MCF7 [34]
  Activity: inactive
MCF-10A [35]
  Activity: inactive
MDA-MB-468 [36]
  Activity: Dose-Dependent Effect
MDA-MB-468 [37]
  Activity: 69.1%
[38]
  inhibition: Active
MDA-MB-468 [39]
  Activity: 9.32%
BT-474 [40]
  Activity: inactive
MCF7 [41]
  Activity: inactive
MDA-MB-468 [42]
  Activity: 75%
MDA-MB-468 [43]
  Activity: 22.8%
JIMT-1 [44]
  IC50: 44.9 µM

## O=C1Nc2ccccc2N/C1=C\C(=O)c1ccccc1
BT-474 [7]
  IC50: > 10 µM
MCF7 [13]
  IC50: > 10 µM
[14]
  IC50: > 10 µM
MDA-MB-468 [16]
  IC50: 7.73 µM
SK-BR-3 [32]
  IC50: > 10 µM
MDA-MB-468 [33]
  inhibition at 10 µM: 50%
JIMT-1 [44]
  IC50: > 10 µM

From ChEMBL document CHEMBL5576060, “Discovery of acetophenone/piperazin-2-one hybrids as selective anti-TNBC cancer agents by causing DNA damage” (Bioorg Med Chem Lett, 2024)
